Key:
Format in all cases: cell-based
rat ASIC3 = target: T1, rat ASIC3 (Rattus norvegicus, UniProt O35240); assay: Whole-cell patch clamp of acid-induced peak inward currents in HEK293 transfected with rat ASIC3; conditions: for inhibitory effect on acid-induced peak inward currents, rASIC3: HEK293, voltage clamp, increasing concentrations; for potency as antagonist compared to amiloride, rASIC3: full dose-inhibition curves, HEK293
T1 construct: expressed in transfected cells; host or cells: HEK293
T1 sequence (O35240 1-533): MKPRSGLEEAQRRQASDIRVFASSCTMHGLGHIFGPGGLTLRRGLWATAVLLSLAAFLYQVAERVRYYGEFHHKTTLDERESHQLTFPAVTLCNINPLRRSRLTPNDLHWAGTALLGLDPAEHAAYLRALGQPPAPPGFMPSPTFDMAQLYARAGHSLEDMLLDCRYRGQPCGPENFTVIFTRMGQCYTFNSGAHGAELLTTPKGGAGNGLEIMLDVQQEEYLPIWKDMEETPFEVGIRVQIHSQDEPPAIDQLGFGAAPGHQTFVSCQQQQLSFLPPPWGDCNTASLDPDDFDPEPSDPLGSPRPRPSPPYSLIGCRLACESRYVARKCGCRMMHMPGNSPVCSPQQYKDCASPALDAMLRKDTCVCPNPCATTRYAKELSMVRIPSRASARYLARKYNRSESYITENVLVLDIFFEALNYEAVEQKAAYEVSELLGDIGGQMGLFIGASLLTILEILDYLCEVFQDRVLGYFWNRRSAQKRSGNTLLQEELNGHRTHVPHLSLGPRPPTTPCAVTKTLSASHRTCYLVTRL
Protocol: (§1) Another example of an in vitro assessment method consists of using mammalian heterologous expression systems, which are known to the skilled in the art, and include a variety of mammalian cell lines such as COS, HEK, e.g., HEK293 and/or CHO, cells. Cell lines are transfected with gated ion channel(s) and used to perform electrophysiology as follows:
(§2) All experiments are performed at room temperature (20-25° C.) in voltage clamp using conventional whole cell patch clamp methods (Neher, E., et al. (1978) Pfluegers Arch 375:219-228).
(§3) The amplifier used is the EPC-9 (HEKA-electronics, Lambrect, Germany) run by a Macintosh G3 computer via an ITC-16 interface. Experimental conditions are set with the Pulse-software accompanying the amplifier. Data is low pass filtered and sampled directly to hard-disk at a rate of 3 times the cut-off frequency.
(§4) Pipettes are pulled from borosilicate glass using a horizontal electrode puller (Zeitz-Instrumente, Augsburg, Germany). The pipette resistances are 2-3 MOhms in the salt solutions used in these experiments. The pipette electrode is a chloridized silver wire, and the reference is a silver chloride pellet electrode (In Vivo Metric, Healdsburg, USA) fixed to the experimental chamber. The electrodes are zeroed with the open pipette in the bath just prior to sealing.
(§5) Coverslips with the cells are transferred to a 15 μl experimental chamber mounted on the stage of an inverted microscope (IMT-2, Olympus) supplied with Nomarski optics. Cells are continuously superfused with extracellular saline at a rate of 2.5 ml/min. After giga-seal formation, the whole cell configuration is attained by suction. The cells are held at a holding voltage of −60 mV and at the start of each experiment the current is continuously measured for 45 s to ensure a stable baseline. Solutions of low pH (<7) are delivered to the chamber through a custom-made gravity-driven flowpipe, the tip of which is placed approximately 50 μm from the cell. Application is triggered when the tubing connected to the flowpipe is compressed by a valve controlled by the Pulse-software. Initially, low pH (in general, pH 6.5) is applied for 5 s every 60 s. The sample interval during application is 5501s. […] Current amplitudes are measured at the peak of the responses, and effect of the compounds is calculated as the amplitude at compound equilibrium divided by the amplitude of the current evoked by the pulse just before the compound was included. […]
(§6) HEK293 cells were transfected with rASIC1a or rASIC3 and were used to perform full dose-inhibition curves with Compound A, Compound H and amiloride. Results are expressed as a fraction of the control peak current obtained in the absence of the test substance.

rat ASIC1a = target: T2, rat ASIC1a (Rattus norvegicus, UniProt P55926); assay: Whole-cell patch clamp of acid-induced peak inward currents in HEK293 transfected with rat ASIC1a; conditions: for inhibitory effect on acid-induced peak inward currents, rASIC1a: HEK293, voltage clamp, increasing concentrations; for potency as antagonist compared to amiloride, rASIC1a: full dose-inhibition curves, HEK293
T2 construct: expressed in transfected cells; host or cells: HEK293
T2 sequence (P55926 1-526): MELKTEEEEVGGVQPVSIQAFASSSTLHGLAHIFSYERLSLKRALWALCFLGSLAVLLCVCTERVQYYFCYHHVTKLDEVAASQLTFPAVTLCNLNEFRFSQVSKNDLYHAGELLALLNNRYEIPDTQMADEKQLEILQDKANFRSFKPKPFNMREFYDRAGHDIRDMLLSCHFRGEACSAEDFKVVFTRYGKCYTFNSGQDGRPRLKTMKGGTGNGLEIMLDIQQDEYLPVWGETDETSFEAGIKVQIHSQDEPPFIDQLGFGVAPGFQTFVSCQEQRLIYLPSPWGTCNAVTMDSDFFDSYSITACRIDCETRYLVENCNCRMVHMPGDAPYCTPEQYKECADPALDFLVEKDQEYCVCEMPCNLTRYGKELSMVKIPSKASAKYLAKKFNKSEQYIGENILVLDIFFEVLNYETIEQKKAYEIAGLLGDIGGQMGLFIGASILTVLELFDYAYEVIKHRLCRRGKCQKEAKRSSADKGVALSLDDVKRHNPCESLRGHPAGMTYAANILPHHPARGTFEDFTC
Protocol: as §1, §2, §3, §4, §5, §6

[1] = test system: rat dorsal root ganglion neurons; assay: Patch clamp (current clamp) of acid-induced action potential generation in rat dorsal root ganglion neurons in primary culture; conditions: 1 μM, current-clamp mode, n=3
Protocol: The acid-evoked action potentials were recorded in the presence and absence of Compound A (1 μM) or Compound H (1 μM) using the whole cell configuration of the patch clamp method (current clamp mode).
Sensory neurons can be isolated and cultured in vitro from different animal species. The most widely used protocols use sensory neurons isolated from neonatal (Eckert, et al. (1997) J Neurosci Methods 77:183-190) and embryonic (Vasko, et al. (1994) J Neurosci 14:4987-4997) rat. […] Electrophysiology is performed similarly as described above in Example 2. […] In the current-clamp mode, change in the trans-membrane potential are recorded. Under acidic conditions (e.g., pH 6.5) the membrane depolarizes, leading to the firing of action potentials, as shown in FIGS. 7A and 7B.

| inhibitory effect on acid-induced peak inward currents, rASIC3 (rat ASIC3) | inhibitory effect on acid-induced peak inward currents, rASIC1a (rat ASIC1a) | Compound | potency as antagonist compared to amiloride, rASIC3 (rat ASIC3) | potency as antagonist compared to amiloride, rASIC1a (rat ASIC1a) | effect on acid-induced membrane depolarization and action potential firing [1] |
| --- | --- | --- | --- | --- | --- |
| dose-dependently inhibit | dose-dependently inhibit | COc1ccc(F)cc1-c1cc2c(c3c1CCN(C)C3)NC(=O)/C2=N/O [Compound A, 5-(5-fluoro-2-methoxyphenyl)-6,7,8,9-tetrahydro-3-(hydroxyimino)-8-methyl-1H-pyrrolo[3,2-h]isoquinoline-2(3H)-one] | more potent antagonists as compared to amiloride | more potent antagonists as compared to amiloride | inhibit the acid-induced membrane depolarization and reduces the ensuing rate of action potential firing |
| dose-dependently inhibit | dose-dependently inhibit | CCN1CCc2c(-c3ccccc3)cc3c(c2C1)NC(=O)/C3=N/O [Compound H, 5-phenyl-6,7,8,9-tetrahydro-3-(hydroxyimino)-8-ethyl-1H-pyrrolo[3,2-h]isoquinoline-2(3H)-one] | more potent antagonists as compared to amiloride | more potent antagonists as compared to amiloride | inhibit the acid-induced membrane depolarization and reduces the ensuing rate of action potential firing |

From patent publication US7718641B2, “Pyrrolo [3,4-H] isoquinoline compounds and methods for modulating gated ion channels” (Aros Pharma ApS, priority 2005, dated 2010)
